ChEMBL document CHEMBL5500422, “New Horizons of Synthetic Lethality in Cancer: Current Development and Future Perspectives” (J Med Chem, 2024)

Tests used:
[1] = molecular target: von Hippel-Lindau disease tumor suppressor/SWI/SNF-related matrix-associated actin-dependent regulator of chromatin subfamily A member 4 (Homo sapiens) (UniProt P51532+P40337); assay: PROTAC activity at VHL/SMARCA4 in human MV4-11 cells assessed as induction of SMARCA4 degradation by measuring maximal efficacy incubated for 18 hrs by Western blotting analysis relative to control; type: cell-based
[2] = molecular target: von Hippel-Lindau disease tumor suppressor/SWI/SNF-related matrix-associated actin-dependent regulator of chromatin subfamily A member 2 (Homo sapiens) (UniProt P51531+P40337); assay: PROTAC activity at VHL/SMARCA2 in human NCI-H838 cells assessed as induction of SMARCA2 degradation at 0.001 to 1000 nM incubated for 24 hrs by Western blotting analysis relative to control; type: cell-based; conditions: dose 0.001-1000 nM
[3] = molecular target: T1, DNA repair protein RAD52 homolog (Homo sapiens, UniProt P43351); assay: Inhibition of RAD52 (unknown origin) by FRET analysis
T1 sequence (P43351 whole entry): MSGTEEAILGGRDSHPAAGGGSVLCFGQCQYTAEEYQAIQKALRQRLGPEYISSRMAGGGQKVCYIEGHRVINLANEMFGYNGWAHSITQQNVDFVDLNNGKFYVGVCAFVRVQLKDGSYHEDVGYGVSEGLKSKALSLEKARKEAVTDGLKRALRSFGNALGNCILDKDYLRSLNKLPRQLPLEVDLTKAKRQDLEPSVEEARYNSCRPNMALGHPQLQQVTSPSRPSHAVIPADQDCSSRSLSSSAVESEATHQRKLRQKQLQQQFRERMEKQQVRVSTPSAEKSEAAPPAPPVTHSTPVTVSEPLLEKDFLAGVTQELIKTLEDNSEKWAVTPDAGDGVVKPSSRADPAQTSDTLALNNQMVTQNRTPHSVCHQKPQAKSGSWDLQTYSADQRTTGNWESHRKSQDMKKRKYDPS

[4] = Antiproliferative activity against human UWB1289 cells harboring BRCA1 assessed inhibition of cell growth incubated for 48 hrs by MTT assay; type: functional, cell-based; conditions: UWB1289, 48 h
[5] = molecular target: T2, Ubiquitin carboxyl-terminal hydrolase 1 (Homo sapiens, UniProt O94782); assay: Inhibition of human recombinant USP1 expressed in baculovirus expressed in Bac-to-Bac baculovirus expression system
T2 sequence (O94782 whole entry): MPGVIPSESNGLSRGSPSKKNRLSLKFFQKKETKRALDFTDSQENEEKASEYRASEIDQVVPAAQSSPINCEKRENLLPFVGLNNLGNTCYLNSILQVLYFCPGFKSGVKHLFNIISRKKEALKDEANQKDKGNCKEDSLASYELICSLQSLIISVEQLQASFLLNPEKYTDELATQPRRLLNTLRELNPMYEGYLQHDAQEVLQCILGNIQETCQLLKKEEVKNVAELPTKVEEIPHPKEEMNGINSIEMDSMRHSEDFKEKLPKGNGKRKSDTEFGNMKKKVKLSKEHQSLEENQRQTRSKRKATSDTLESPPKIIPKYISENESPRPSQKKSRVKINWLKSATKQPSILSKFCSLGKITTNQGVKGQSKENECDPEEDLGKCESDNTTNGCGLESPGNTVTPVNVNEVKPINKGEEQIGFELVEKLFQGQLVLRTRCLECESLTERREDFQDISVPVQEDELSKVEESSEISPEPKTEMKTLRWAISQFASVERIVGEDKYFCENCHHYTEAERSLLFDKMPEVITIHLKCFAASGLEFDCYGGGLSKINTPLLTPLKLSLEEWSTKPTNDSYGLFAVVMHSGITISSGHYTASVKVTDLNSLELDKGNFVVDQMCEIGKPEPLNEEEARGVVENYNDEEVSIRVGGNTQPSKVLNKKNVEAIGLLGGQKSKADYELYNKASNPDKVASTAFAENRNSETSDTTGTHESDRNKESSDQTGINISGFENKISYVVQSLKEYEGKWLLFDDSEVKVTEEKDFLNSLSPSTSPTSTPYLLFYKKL

[6] = Intrinsic clearance in mouse liver microsomes; type: ADME, Microsome
[7] = molecular target: DNA-dependent protein kinase catalytic subunit (Homo sapiens, UniProt P78527)
Description: Inhibition of DNA-PK in human HCT-116 cells measured after 1 hr by Bradford assay

[8] = Intrinsic clearance in human liver microsomes; type: ADME, Microsome
HEK293 = assay: Antiproliferative activity against HEK293 cells assessed as inhibition of cell growth incubated for 48 hrs by CCK8 assay; type: functional, cell-based; conditions: Homo sapiens, HEK293, 48 h
LoVo = assay: Antiproliferative activity against human LoVo cells assessed as reduction in cell viability measured for 48 hrs byT assay; type: functional, cell-based

DNA-dependent protein kinase catalytic subunit, sequence (P78527 whole entry): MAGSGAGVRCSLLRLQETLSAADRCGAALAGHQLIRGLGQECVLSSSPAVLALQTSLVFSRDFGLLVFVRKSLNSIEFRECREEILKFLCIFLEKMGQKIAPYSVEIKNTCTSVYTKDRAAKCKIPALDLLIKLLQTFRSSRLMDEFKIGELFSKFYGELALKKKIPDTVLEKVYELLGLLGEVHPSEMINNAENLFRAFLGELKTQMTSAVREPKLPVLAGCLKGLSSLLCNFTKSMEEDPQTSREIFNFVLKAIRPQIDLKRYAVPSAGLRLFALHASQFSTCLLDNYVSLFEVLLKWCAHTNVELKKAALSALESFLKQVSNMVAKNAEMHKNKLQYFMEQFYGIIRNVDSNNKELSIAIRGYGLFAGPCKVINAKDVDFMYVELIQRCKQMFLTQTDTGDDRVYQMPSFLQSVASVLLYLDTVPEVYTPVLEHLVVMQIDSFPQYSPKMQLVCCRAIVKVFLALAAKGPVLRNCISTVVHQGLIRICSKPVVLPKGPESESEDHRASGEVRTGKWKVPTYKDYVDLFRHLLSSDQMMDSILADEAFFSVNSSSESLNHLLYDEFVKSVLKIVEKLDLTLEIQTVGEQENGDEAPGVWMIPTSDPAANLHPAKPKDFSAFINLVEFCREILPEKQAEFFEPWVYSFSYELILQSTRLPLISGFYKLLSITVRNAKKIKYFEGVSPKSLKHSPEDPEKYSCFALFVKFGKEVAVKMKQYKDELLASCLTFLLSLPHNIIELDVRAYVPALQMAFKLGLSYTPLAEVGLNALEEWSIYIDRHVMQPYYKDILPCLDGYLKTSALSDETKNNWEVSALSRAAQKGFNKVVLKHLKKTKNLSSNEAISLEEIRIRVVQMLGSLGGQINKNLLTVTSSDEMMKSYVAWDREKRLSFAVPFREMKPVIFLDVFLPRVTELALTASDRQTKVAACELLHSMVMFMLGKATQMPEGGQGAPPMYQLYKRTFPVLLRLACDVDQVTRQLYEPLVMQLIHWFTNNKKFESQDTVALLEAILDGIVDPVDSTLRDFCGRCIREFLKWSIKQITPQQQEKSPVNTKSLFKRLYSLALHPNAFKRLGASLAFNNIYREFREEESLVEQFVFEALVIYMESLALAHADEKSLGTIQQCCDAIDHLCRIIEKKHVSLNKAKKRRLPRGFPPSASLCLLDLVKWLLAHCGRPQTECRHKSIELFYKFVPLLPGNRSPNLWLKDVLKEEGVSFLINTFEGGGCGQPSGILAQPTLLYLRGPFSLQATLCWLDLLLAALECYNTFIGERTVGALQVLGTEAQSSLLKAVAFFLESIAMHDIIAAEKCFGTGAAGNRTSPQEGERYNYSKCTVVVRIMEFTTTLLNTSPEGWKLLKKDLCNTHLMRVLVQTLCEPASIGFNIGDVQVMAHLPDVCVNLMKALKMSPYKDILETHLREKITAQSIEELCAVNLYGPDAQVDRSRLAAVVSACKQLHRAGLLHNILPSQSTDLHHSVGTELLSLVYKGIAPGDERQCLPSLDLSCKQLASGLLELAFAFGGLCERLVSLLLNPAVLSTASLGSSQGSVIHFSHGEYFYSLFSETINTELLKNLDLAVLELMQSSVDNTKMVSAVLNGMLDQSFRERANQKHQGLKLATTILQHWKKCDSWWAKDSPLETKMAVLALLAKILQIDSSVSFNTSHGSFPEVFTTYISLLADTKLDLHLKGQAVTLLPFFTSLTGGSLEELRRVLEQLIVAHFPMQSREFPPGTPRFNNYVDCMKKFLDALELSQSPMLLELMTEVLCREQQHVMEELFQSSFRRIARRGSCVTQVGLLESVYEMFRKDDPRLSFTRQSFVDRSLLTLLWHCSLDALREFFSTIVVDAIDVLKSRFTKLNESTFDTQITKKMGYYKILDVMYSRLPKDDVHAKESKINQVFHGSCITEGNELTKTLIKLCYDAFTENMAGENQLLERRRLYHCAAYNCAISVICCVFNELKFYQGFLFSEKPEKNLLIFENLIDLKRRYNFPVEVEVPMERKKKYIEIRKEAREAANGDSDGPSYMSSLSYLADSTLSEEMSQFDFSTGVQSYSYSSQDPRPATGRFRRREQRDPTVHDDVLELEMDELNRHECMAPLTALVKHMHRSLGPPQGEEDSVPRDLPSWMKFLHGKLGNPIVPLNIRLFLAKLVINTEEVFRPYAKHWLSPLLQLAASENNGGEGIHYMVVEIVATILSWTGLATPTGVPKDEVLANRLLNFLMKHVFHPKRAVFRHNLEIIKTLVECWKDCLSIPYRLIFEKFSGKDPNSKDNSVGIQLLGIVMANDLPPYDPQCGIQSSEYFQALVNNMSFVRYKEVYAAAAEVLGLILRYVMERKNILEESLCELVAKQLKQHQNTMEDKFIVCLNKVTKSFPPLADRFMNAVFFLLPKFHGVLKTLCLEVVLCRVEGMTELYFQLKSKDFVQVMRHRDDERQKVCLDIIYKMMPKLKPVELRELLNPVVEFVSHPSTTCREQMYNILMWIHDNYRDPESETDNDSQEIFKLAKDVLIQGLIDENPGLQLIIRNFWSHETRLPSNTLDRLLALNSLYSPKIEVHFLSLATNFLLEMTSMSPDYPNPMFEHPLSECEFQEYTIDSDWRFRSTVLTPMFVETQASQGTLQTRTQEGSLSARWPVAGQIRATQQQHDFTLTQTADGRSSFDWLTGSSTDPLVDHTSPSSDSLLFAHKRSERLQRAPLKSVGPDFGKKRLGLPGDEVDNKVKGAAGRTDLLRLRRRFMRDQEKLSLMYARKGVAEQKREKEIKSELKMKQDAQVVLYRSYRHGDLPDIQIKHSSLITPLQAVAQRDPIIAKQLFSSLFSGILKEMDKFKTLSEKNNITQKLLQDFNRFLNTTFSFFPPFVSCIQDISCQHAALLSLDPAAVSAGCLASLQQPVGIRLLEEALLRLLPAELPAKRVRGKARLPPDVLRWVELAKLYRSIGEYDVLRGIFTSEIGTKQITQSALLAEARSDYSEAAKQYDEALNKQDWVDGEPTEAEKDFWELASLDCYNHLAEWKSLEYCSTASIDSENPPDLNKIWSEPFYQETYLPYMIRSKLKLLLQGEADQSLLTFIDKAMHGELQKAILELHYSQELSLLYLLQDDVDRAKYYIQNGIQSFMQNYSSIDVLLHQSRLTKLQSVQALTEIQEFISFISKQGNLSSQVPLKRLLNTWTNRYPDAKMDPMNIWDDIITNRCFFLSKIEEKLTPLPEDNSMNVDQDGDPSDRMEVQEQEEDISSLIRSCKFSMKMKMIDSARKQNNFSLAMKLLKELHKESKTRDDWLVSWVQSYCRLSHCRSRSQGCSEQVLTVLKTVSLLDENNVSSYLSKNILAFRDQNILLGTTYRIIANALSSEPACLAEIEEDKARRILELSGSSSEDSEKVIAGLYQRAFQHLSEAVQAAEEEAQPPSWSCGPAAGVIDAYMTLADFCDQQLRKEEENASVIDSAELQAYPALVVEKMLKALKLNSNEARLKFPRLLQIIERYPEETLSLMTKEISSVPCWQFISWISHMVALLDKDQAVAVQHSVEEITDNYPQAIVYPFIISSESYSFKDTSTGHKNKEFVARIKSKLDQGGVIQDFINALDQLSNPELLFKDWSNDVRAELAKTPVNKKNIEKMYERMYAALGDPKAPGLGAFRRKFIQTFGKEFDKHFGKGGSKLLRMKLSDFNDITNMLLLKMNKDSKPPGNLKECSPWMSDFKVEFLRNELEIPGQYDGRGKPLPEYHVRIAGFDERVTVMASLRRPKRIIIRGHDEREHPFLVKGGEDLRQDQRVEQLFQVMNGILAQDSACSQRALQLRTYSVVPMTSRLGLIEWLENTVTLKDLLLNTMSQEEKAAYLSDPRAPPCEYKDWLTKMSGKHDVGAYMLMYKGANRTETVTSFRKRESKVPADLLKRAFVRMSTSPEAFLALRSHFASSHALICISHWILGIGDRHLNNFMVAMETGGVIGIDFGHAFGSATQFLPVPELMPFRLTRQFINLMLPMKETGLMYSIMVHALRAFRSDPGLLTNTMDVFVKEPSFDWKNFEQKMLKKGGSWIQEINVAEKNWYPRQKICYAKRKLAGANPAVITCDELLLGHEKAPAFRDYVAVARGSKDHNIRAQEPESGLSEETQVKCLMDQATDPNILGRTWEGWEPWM

With `Cc1ncsc1-c1ccc([C@H](CC[C@H](C)CCN2CCC(c3ccc4c(c3)n(C3CCCC3)c3nc(=O)c5c(Br)cccc5n43)CC2)NC(=O)[C@@H]2C[C@@H](O)CN2C(=O)[C@@H](NC(=O)C2(F)CC2)C(C)(C)C)cc1` as the molecule, how does the Emax [1] read?
The Emax was 67%.

What about the Emax [2] of the same molecule?
The Emax was 81%.

For `O=C(Cn1cccc([N+](=O)[O-])c1=O)c1c[nH]c2ccccc12`, which IC50 [3] is on record?
Its IC50 is 2000 nM.

Which IC50 [3] does the source give for `COc1ccccc1NS(=O)(=O)c1cc(C(=O)O)ccc1C` here?
The IC50 was 2000 nM.

For `Cc1cccc(N(C)C(=O)[C@@H]2[C@H](O)CCN2c2nc(C)cc(C(F)(F)F)c2C#N)c1`, which IC50 [4] is on record?
Its IC50 is 7.9 nM.

For `CC(C)c1ccccc1-c1ncc2[nH]c(=O)n(Cc3ccc(-c4nc(C(F)(F)F)cn4C)cc3)c2n1`, which IC50 [5] is on record?
Its IC50 is 4.1 nM.

For `Cn1c(=O)c2cc(S(=O)(=O)NC3(C)CC3)ccc2n(C)c1=O`, which CLH [6] is on record?
The CLH was 211 µL/min/mg.

For `CC(C)NCCOc1ncc(-c2cc3c4c(cnc3cc2F)N(C)C(=O)C42CCC2)cc1NS(C)(=O)=O`, which IC50 [7] is on record?
Its IC50 is 0.89 nM.

For `Cc1ncc(Cn2c(=O)c3cc(S(=O)(=O)NC4(C)CC4)ccc3n(CC3CC3)c2=O)s1`, which CLH [8] is on record?
Its CLH is 78 µL/min/mg.

Which IC50 (HEK293) does the source give for `C[C@@H]1COCCN1c1cc(N=[S@@](C)(=O)C2CC2)nc(-c2ccnc(N)c2)n1` here?
Its IC50 is 7900 nM.

With `Nc1nn2cc(F)cnc2c1C(=O)Nc1cncc(F)c1N1CCC(C(=O)N2CCN(C3COC3)CC2)CC1` [M4344] as the molecule, how does the IC50 (LoVo) read?
The IC50 was 86 nM.
